Structures are written as SMILES. Where a name gives a salt, the structure may show the parent alone. Read-outs that look alike come from different tables or passages of the source.

One experiment deals with T1, human β3 (Homo sapiens, UniProt P13945).
T1 construct: And then full length of human β3 gene was cloned using this fragment as a probe; expressed in transfected cells; host or cells: CHO cells (Chinese hamster ovary), pcDNA3 vector
The experiment can be described thus: Human β3-agonist activity (cAMP in CHO cells transfected with human β3 gene). It is filed as cell-based. Conditions: for Emax: CHO, read-out: Intrinsic activity (%). As to the method:
Human β3-agonist Activity
Human β3-agonist activity was examined using CHO cells (chinese hamster ovarian cells) to which pcDNA3 (in vitrogen) cells inserted human β3 gene was transfected. Human β3 fragment was obtained by PCR using human fat tissue cDNA (supplied from Clontech) with a β3 primer [Krief et al, J. Clin. Invest.
The cells were cultured in a HAM F-12 medium containing 10% of fetal bovine serum, 400 μg/ml of Geneticin (Gibco BRL). 100 U/ml penicillin and 100 μg/ml streptomycin. 5×10^5 cells were placed on a 6-well plate and cultured for 24 hours, after which the medium was changed to a HAM F-12 medium without serum and was kept for 2 hours. Each test compound was first dissolved in DMSO, and then diluted with a HAM F-12 medium containing 1 mM isobutylmethyl xanthine and 1 mM ascorbic acid. A 10-fold dilution in the range of 10^−5 to 10^−12 M was added into the cell.
After culturing for 30 minutes, culture medium was withdrawn, 0.5 ml of 1 N NaOH was added and was kept for 20 minutes. And then 0.5 ml of 1 N acetic acid was added with subsequent agitation and centrifugation. Finally the concentration of cAMP were analyzed using cAMP EIA KIT (Cayman). […] Isoprotelenol was purchased from Research Biochimicals International.

In the next experiment the test system is canine adipocytes. The experiment can be described thus: Lipolytic activity in canine fatty cell (glycerol release). Conditions: Canis lupus familiaris, Adipocyte; for EC50: 1 h, glycerol release, canine adipocytes, read-out: ED50 (the source's name); for Emax: read-out: Intrinsic activity (%). It is filed as cell-based, dogs. As to the method: Lipolytic Activity in Canine Fatty Cell
Adipose tissues in the omentum were collected from dogs and minced and washed. Krebs-Ringer buffer solution containing 1 mg/ml Collagenase (Sigma) and 1% of bovine serum albumin was added in an amount of 3 ml per one gram of the tissue. These cells were then incubated at 37° C. for 30 minutes with shaking and then undigested tissues were removed with a nylon filter. The resulting adipocytes were washed four times with Krebs-Ringer buffer, and then the concentration of cells was diluted to 2×10^5/ml with Krebs-Ringer buffer solution containing 4% of bovine serum albumin. These cells were transferred to Eppendorf tubes each in an amount of 300 μl.
Each 300 μl of a culture medium containing the test compounds were added to these tubes and was held at 37° C. for 1 hour whith shaking. Stimulation was stoped by cooling with ice. After centrifugation, the adipocytes were taken off with an aspirator, whereupon the glycerol was determined using F-KIT GLTCEROL (Behringer-Manheim).

Setting [1] is: cAMP, CHO cells with human β3, read-out: ED50 (the source's name).

T1 sequence (P13945 whole entry, the tested form may be a part): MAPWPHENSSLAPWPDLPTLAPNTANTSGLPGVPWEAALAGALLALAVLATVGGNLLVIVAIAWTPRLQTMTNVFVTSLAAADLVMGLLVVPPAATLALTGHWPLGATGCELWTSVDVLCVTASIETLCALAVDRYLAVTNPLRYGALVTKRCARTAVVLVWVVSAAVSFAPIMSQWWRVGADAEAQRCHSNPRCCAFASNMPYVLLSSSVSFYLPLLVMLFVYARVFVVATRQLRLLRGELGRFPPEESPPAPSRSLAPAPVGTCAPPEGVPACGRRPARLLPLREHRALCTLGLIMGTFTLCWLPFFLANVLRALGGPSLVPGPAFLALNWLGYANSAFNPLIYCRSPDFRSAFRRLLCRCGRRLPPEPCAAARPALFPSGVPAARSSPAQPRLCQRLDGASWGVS

Turning to `CS(=O)(=O)Nc1cc(C(O)CNCCOc2ccc3c(c2)oc2ccccc23)ccc1O` (racemic) [Example 4, (±)-N-[5-[2-[2-(Dibenzofuran-3-yloxy)ethylamino]-1-hydroxyethyl]-2-hydroxyphenyl]methanesulfonamide Hydrochloride], the EC50 on human β3 was determined as 0.52 nM; with canine adipocytes, 0.7 nM. Moreover, the Emax was 80% at human β3 and 88% with canine adipocytes.

On to `CS(=O)(=O)Nc1cccc(C(O)CNCCOc2ccc3c(c2)oc2ccccc23)c1` (racemic) [Example 9, (±)-N-[3-[2-[2-(Dibenzofuran-3-yloxy)ethylamino]-1-hydroxyethl]phenyl]methanesulfonamide Hydrochloride], for which the results for the Emax at human β3 and with canine adipocytes were 85% and 106%, respectively. Also, the EC50 is 750 nM at human β3 (setting [1]) and 250 nM in the experiment with canine adipocytes.

Consider `CN(C)S(=O)(=O)Nc1cc(C(O)CNCCOc2ccc3c(c2)[nH]c2ccccc23)ccc1O` (racemic) [Example 25, (±)-N′-[5-[2-[2-(9H-Carbazol-2-yloxy)ethylamino]-1-hydroxyethyl]-2-hydroxyphenyl]-N,N-dimethylsulfamide Hydrochloride], for which, on human β3, the EC50 turned out to be 2.1 nM and the Emax was found to be 95%. Further, in the experiment with canine adipocytes, the EC50 is 510 nM and the Emax came out at 70%.

`CN(Cc1ccccc1)S(=O)(=O)Nc1cc(C(O)CNCCOc2ccc3c(c2)[nH]c2ccccc23)ccc1O` (racemic) [Example 87, (±)-N′-[5-[2-[2-(9H-Carbazol-2-yloxy)ethylamino]-1-hydroxyethyl]-2-hydroxyphenyl]-N-methyl-N-benzylsulfamide Hydrochloride]: at human β3, the EC50 came to 84 nM and the Emax was 138%.

For `CCN(CC)S(=O)(=O)Nc1cc(C(O)CNCCOc2ccc3c(c2)[nH]c2ccccc23)ccc1O` (racemic) [Example 88, (±)-N′-[5-[2-[2-(9H-Carbazol-2-yloxy)ethylamino]-1-hydroxyethyl]-2-hydroxyphenyl]-N,N-diethylsulfamide Hydrochloride], at human β3, the EC50 was determined as 390 nM and the Emax was determined as 86%.

On to `CN(C)S(=O)(=O)c1cc(C(O)CNCCOc2ccc3c(c2)[nH]c2ccccc23)ccc1O` (racemic) [Example 89, (±)-N,N-Dimethyl-(5-[2-[2-(9H-carbazol-2-yloxy)ethylamino]-1-hydroxyethyl]-2-hydroxy]benzenesulfonamide Hydrochloride], for which the Emax at human β3 was 73%. The EC50 at human β3 (setting [1]) came out at 350 nM.

On to `COC(CNCCOc1ccc2c(c1)[nH]c1ccccc12)c1ccc(O)c(NS(C)(=O)=O)c1` (racemic) [Example 90, (±)-N-[5-[2-[2-(9H-Carbazol-2-yloxy)ethylamino]-1-methoxyethyl]-2-hydroxyphenyl]methanesulfonamide Hydrochloride], for which, at human β3, the EC50 came out at 190 nM and the Emax is 102%.

For `CS(=O)(=O)Nc1cc([C@@H](O)CNCCOc2ccc3c(c2)[nH]c2ccccc23)ccc1O` [Example 12, (R)-N-[5-[2-[2-(9H-Carbazol-2-yloxy)ethylamino]-1-hydroxyethyl]-2-hydroxyphenyl]methanesulfonamide Hydrochloride], at human β3, the EC50 amounted to 0.14 nM and the Emax was found to be 113%.

Turning to `CS(=O)(=O)Nc1cc([C@H](O)CNCCOc2ccc3c(c2)[nH]c2ccccc23)ccc1O` [Example 13, (S)-N-[5-[2-[2-(9H-Carbazol-2-yloxy)ethylamino]-1-hydroxyethyl]-2-hydroxyphenyl]methanesulfonamide Hydrochloride], on human β3, the EC50 was 2.7 nM and the Emax was 110%.

In the case of `CS(=O)(=O)Nc1cccc([C@@H](O)CNCCOc2ccc3c(c2)[nH]c2ccccc23)c1` [Example 14, (R)-N-[3-[2-[2-(9H-Carbazol-2-yloxy)ethylamino]-1-hydroxyethyl]phenyl]methanesulfonamide Hydrochloride], on human β3, the EC50 came out at 2.8 nM and the Emax was 97%.

As to `CS(=O)(=O)Nc1cccc([C@H](O)CNCCOc2ccc3c(c2)[nH]c2ccccc23)c1` [Example 15, (S)-N-[3-[2-[2-(9H-Carbazol-2-yloxy)ethylamino]-1-hydroxyethyl]phenyl]methanesulfonamide Hydrochloride], at human β3, the EC50 was determined as 110 nM and the Emax came out at 88%.

Consider `C[C@H](COc1ccc2c(c1)[nH]c1ccccc12)NC[C@H](O)c1ccccc1` [Example 35, (R,R)-2-[N-[1-(9H-Carbazol-2-yloxy)propan-2-yl]amino]-1-phenylmethanol Hydrochloride], for which the Emax on human β3 was 90%. Also, the EC50 on human β3 (setting [1]) came out at 520 nM.

In the case of `CS(=O)(=O)Nc1cccc([C@@H](O)CNCCOc2ccc3c(c2)oc2ccccc23)c1` [Example 70, (R)-N-[3-[2-[2-(Dibenzofuran-3-yloxy)ethylamino]-1-hydroxyethyl]phenyl]methanesulfonamide Hydrochloride], on human β3, the EC50 is 300 nM and the Emax came to 76%.

Take `CN(C)S(=O)(=O)Nc1cc([C@@H](O)CNCCOc2ccc3c(c2)[nH]c2ccccc23)ccc1O` [Example 73, (R)-N′-[5-[2-[2-(9H-Carbazol-2-yloxy)ethylamino]-1-hydroxyethyl]-2-hydroxyphenyl]-N,N-dimethylsulfamide Hydrochloride]: on human β3, the EC50 was 0.038 nM and the Emax is 102%.

Regarding `CN(C)S(=O)(=O)Nc1cc([C@H](O)CNCCOc2ccc3c(c2)[nH]c2ccccc23)ccc1O` [Example 74, (S)-N′-[5-[2-[2-(9H-Carbazol-2-yloxy)ethylamino]-1-hydroxyethyl]-2-hydroxyphenyl]-N,N-dimethylsulfamide Hydrochloride], at human β3, the EC50 was found to be 0.74 nM and the Emax stood at 114%.

`CN(C)S(=O)(=O)Nc1cc([C@@H](O)CNCCOc2ccc3c(c2)oc2ccccc23)ccc1O` [Example 75, (R)-N′-[5-[2-[2-(Dibenzofuran-3-yloxy)ethylamino]-1-hydroxyethyl]-2-hydroxyphenyl]-N,N-dimethylsulfamide Hydrochloride]: at human β3, the EC50 was determined as 88 nM and the Emax is 105%.

As for `CN(C)S(=O)(=O)Nc1cc([C@H](O)CNCCOc2ccc3c(c2)oc2ccccc23)ccc1O` [Example 76, (S)-N′-[5-[2-[2-(Dibenzofuran-3-yloxy)ethylamino]-1-hydroxyethyl]2-hydroxyphenyl]-N,N-dimethylsulfamide Hydrochloride], on human β3, the EC50 turned out to be 520 nM and the Emax is 131%.

For `CS(=O)(=O)Nc1cc([C@@H](O)CNCCOc2ccc3c(c2)[nH]c2ccccc23)ccc1F` [Example 77, (R)-N-[5-[2-[2-(9H-Carbazol-2-yloxy)ethylamino]-1-hydroxyethyl]-2-fluorophenyl]methanesulfonamide Hydrochloride], on human β3, the EC50 came out at 21 nM and the Emax amounted to 100%.

`CS(=O)(=O)Nc1cc([C@H](O)CNCCOc2ccc3c(c2)[nH]c2ccccc23)ccc1F` [Example 78, (S)-N-[5-[2-[2-(9H-Carbazol-2-yloxy)ethylamino]-1-hydroxyethyl]-2-fluorophenyl]methanesulfonamide Hydrochloride]: at human β3, the EC50 was 51 nM and the Emax was 110%.

In the case of `CS(=O)(=O)Nc1cc([C@@H](O)CNCCOc2ccc3c(c2)[nH]c2ccccc23)ccc1Cl` [Example 79, (R)-N-[5-[2-[2-(9H-Carbazol-2-yloxy)ethylamino]-1-hydroxyethyl]-2-chlorophenyl]methanesulfonamide Hydrochloride], on human β3, the EC50 was determined as 1.2 nM and the Emax worked out at 107%.

Consider `CS(=O)(=O)Nc1cc([C@H](O)CNCCOc2ccc3c(c2)[nH]c2ccccc23)ccc1Cl` [Example 80, (S)-N-[5-[2-[2-(9H-Carbazol-2-yloxy)ethylamino]-1-hydroxyethyl]-2-chlorophenyl]methanesulfonamide Hydrochloride], for which, at human β3, the EC50 was 57 nM and the Emax came out at 110%.

`CNS(=O)(=O)c1cc([C@@H](O)CNCCOc2ccc3c(c2)[nH]c2ccccc23)ccc1O` [Example 81, (R)-N-methyl-[5-(2-[2-(9H-Carbazol-2-yloxy)ethylamino]-1-hydroxyethyl]-2-hydroxy]benzenesulfonamide Hydrochloride]: the Emax at human β3 was 98%. Besides, the EC50 on human β3 (setting [1]) is 6.2 nM.

In the case of `CC(C)NCC(O)c1ccc(O)c(O)c1` (stereo not shown) [Isoproterenol, reference compound], in the experiment on canine adipocytes, the EC50 worked out at 1.7 nM and the Emax worked out at 100%.

For the origin of these results see patent publication US6545053B1, “Tricyclic compounds and drug compositions containing same” (Asahi Kasei Kogyo Kabushiki Kaisha, priority 1996, dated 2003).
